Experimental data: patent publication US4002623A, “Anti-inflammatory 1-[3-(dialkylamino)propyl]-2-acylaminobenzimidazoles and 2-acylamino-3-[3-(dialkylamino)-propyl]imidazo[4,5-b]pyridines” (Pfizer Inc., priority 1974, dated 1977)

Test: adjuvant arthritis screen (Walz et al.), swelling of the non-injected left hind foot on Day 16
Format: in vivo, male inbred Lewis rats
Details: Rattus norvegicus, 384 h, 10 mg./kg. ip, daily day -1 through day 15, read-out: Activity Percent Inhibition
Text: The adjuvant arthritis test described by Walz et al., Ann. Rheum. Dis., 30, 303 (1971) was selected as the method of choice for the determination of the extent of which the novel compounds of the present invention are therapeutically effective as anti-inflammatory agents. Adjuvant arthritis is a crippling deformity in rats resulting from diffuse connective tissue involvement. It is considered by some authorities to be the best available experimental animal model of human rheumatoid arthritis because of its strong clinical and pathological similarities to the human disease and because it can be effectively treated with known anti-arthritic drugs. In this test, lesions resembling those of human rheumatoid arthritis are induced by the injection of complete Freund's adjuvant into one hind leg of a rat. A vigorous inflammatory response occurs in the injected hind leg and reaches its greatest size in about four days. This primary response is followed by the development of a second inflammatory response, appearing about 12-16 days post-injection, that occurs in the uninjected hind leg. While the compounds of the invention are capable of inhibiting the degree of inflammation in both legs, the inhibition of swelling in the uninjected leg at 16 days is considered to be the more meaningful measure of antiarthritic activity.
The adjuvant arthritis screen as described by Walz et al. (Ann. Rheum. Dis., 30: 303 (1971), was used to evaluate the above prepared compounds.
The screen is conducted using male inbred Lewis rats weighing approximately 250 gm. The animals are dosed with drug beginning on day- 1 and continuing daily through day 15. On Day 0, the subplanter surface of the right hind paw is injected with 0.1cc of a 1% suspension of Mycobacterium butyricum (Freunds adjuvant) in Primol (Esso). The swelling of the non-injected left hind foot on Day 16, resulting from immune response to adjuvant, was determined for dosed animals and controls. The foot volume is measured by immersing the paw to the anatomical hairline into a mercury reservoir which is connected to a Statham pressure transducer and a recording device. The results are expressed as % inhibition calculated according to the following equation: [formula] The results obtained are as follows for [drawing 22] where Z is --N(CH3)2 and X is carbon: […]

Compound | inhibition in vivo at 10 mg/kg
O=C(Nc1nc2ccccc2n1CCCN1CCN(Cc2ccccc2)CC1)c1ccc(Cl)c(Cl)c1 [3,4-Dichlorophenyl; H; H; drawing 27] | 19%

Same assay, conditions: Rattus norvegicus, 384 h, 10 mg./kg. po, daily day -1 through day 15, read-out: Activity Percent Inhibition

Compound | inhibition in vivo at 10 mg/kg
CN(C)CCCn1c(NC(=O)c2ccc(Cl)c(Cl)c2)nc2ccccc21 [3,4-Dichlorophenyl; H; H; Z = N(CH3)2] | 13%
CN1CCN(CCCn2c(NC(=O)c3ccc(Cl)c(Cl)c3)nc3ccccc32)CC1 [3,4-Dichlorophenyl; H; H; drawing 24, 1-[3-(4-methyl-1-piperazinyl)propyl]-2-(3,4-dichlorobenzamido)benzimidazole] | 32%
CN1CCN(CCCn2c(NC(=O)c3ccc(Cl)c(Cl)c3)nc3cccnc32)CC1 [3,4-Dichlorophenyl; H; H; drawing 25, 2-(3,4-dichlorobenzamido)-3-[4-(methyl-1-piperazino)-propyl]imidazo[4,5-b]pyridine] | 27%
COc1ccc2c(c1)nc(NC(=O)c1ccc(Cl)c(Cl)c1)n2CCCN1CCN(C)CC1 [3,4-Dichlorophenyl; OCH3; H; drawing 24, 1-[3-(4-methyl-1-piperazinyl)propyl]-2-(3,4-dichlorobenzamido)-5-methoxybenzimidazole] | 35%
CN1CCN(CCCn2c(NC(=O)c3cccc(Cl)c3)nc3cc(Cl)ccc32)CC1 [3-Chlorophenyl; Cl; H; drawing 24] | -5%
Cc1ccc2nc(NC(=O)c3cccc(Cl)c3)n(CCCN3CCN(C)CC3)c2c1 [3-Chlorophenyl; H; CH3; drawing 24] | -5%
COc1ccc2c(c1)nc(NC(=O)c1cccc(Cl)c1)n2CCCN1CCN(C)CC1 [3-Chlorophenyl; OCH3; H; drawing 24] | -1%
CN1CCN(CCCn2c(NC(=O)c3cccc(Cl)c3)nc3cc(S(=O)(=O)N(C)C)ccc32)CC1 [3-Chlorophenyl; SO2 N(CH3)2; H; drawing 24, 1-[3-(4-methyl-1-piperazinyl)propyl]-2-(3-chlorobenzamido)-5-(N,N-dimethylsulfonamido)benzimidazole] | 35%

Same assay, conditions: Rattus norvegicus, 384 h, 20 mg./kg. po, daily day -1 through day 15, read-out: Activity Percent Inhibition

Compound | inhibition in vivo at 20 mg/kg
Cc1cc2nc(NC(=O)c3cccc(C(F)(F)F)c3)n(CCCN3CCN(C)CC3)c2cc1C | 22%
CN1CCN(CCCn2c(NC(=O)c3cccc(C(F)(F)F)c3)nc3cc(S(=O)(=O)N(C)C)ccc32)CC1 | 22%
CN1CCN(CCCn2c(NC(=O)c3ccc(Cl)c(Cl)c3)nc3cc(S(=O)(=O)N(C)C)ccc32)CC1 | 31%
CN1CCN(CCCn2c(NC(=O)c3cc(C(F)(F)F)cc(C(F)(F)F)c3)nc3ccccc32)CC1 | 32%
Cc1cc2nc(NC(=O)c3ccc(C(F)(F)F)cc3)n(CCCN3CCN(C)CC3)c2cc1C | 29%
CN1CCN(CCCn2c(NC(=O)c3ccc(C(F)(F)F)cc3)nc3cc(S(=O)(=O)N(C)C)ccc32)CC1 | 34%
CN1CCN(CCCn2c(NC(=O)c3ccco3)nc3ccccc32)CC1 [2-Furyl; H; H; drawing 24, 1-[3-(4-methyl-1-piperazinyl)propyl]-2-(2-furamido)-benzimidazole] | 43%
Cc1cc2nc(NC(=O)c3ccc(Cl)c(Cl)c3)n(CCCN3CCN(C)CC3)c2cc1C [3,4-Dichlorophenyl; CH3; CH3; drawing 24] | 18%
Cc1ccc2nc(NC(=O)c3ccc(Cl)c(Cl)c3)n(CCCN3CCN(C)CC3)c2c1 [3,4-Dichlorophenyl; H; CH3; drawing 24] | 22%
CN1CCN(CCCn2c(NC(=O)c3ccc(Cl)c(Cl)c3)nc3cccnc32)CC1 [3,4-Dichlorophenyl; H; H; drawing 25, 2-(3,4-dichlorobenzamido)-3-[4-(methyl-1-piperazino)-propyl]imidazo[4,5-b]pyridine] | 41%
CN1CCN(CCCn2c(NC(=O)c3cccc(Cl)c3)nc3cc(C(F)(F)F)ccc32)CC1 [3-Chlorophenyl; CF3; H; drawing 24, 1-[3-(4-methyl-1-piperazinyl)propyl]-2-(3-chlorobenzamido)-5-trifluoromethylbenzimidazole] | 45%
Cc1ccc2c(c1)nc(NC(=O)c1cccc(Cl)c1)n2CCCN1CCN(C)CC1 [3-Chlorophenyl; CH3; H; drawing 24] | 29%
CN1CCN(CCCn2c(NC(=O)c3cccc(Cl)c3)nc3cccnc32)CC1 [3-Chlorophenyl; H; H; drawing 25] | 26%
COc1cccc(C(=O)Nc2nc3cc(C)ccc3n2CCCN2CCN(C)CC2)c1 [3-Methoxyphenyl; CH3; H; drawing 24, 1-[3-(4-methyl-1-piperazinyl)propyl]-2-(3-methoxybenzamido)-5-methylbenzimidazole] | 37%
COc1cccc(C(=O)Nc2nc3ccc(C)cc3n2CCCN2CCN(C)CC2)c1 [3-Methoxyphenyl; H; CH3; drawing 24, 1-[3-(4-methyl-1-piperazinyl)propyl]-2-(3-methoxybenzamido)-6-methylbenzimidazole] | 44%
COc1cccc(C(=O)Nc2nc3cccnc3n2CCCN2CCN(C)CC2)c1 [3-Methoxyphenyl; H; H; drawing 25] | 25%

Same assay, conditions: Rattus norvegicus, 384 h, 33 mg./kg. ip, daily day -1 through day 15, read-out: Activity Percent Inhibition

Compound | inhibition in vivo at 33 mg/kg
CN(C)CCCn1c(NC(=O)c2cccc(C(F)(F)F)c2)nc2ccccc21 | 21%
CN1CCN(CCCn2c(NC(=O)C34CC5CC(CC(C5)C3)C4)nc3ccccc32)CC1 [1-Adamantyl; H; H; drawing 24] | 28%
CN(C)CCCn1c(NC(=O)c2ccccc2Cl)nc2ccccc21 [2-Chlorophenyl; H; H; Z = N(CH3)2] | 15%
CN(C)CCCn1c(NC(=O)C=Cc2ccccc2Cl)nc2ccccc21 [2-Chlorostyryl; H; H; Z = N(CH3)2] | 45%
O=C(Nc1nc2ccccc2n1CCCN1CCOCC1)c1ccccc1F [2-Fluorophenyl; H; H; drawing 23] | 6%
CN(C)CCCn1c(NC(=O)c2ccc(Cl)c(Cl)c2)nc2ccccc21 [3,4-Dichlorophenyl; H; H; Z = N(CH3)2] | 67%
CN1CCN(CCCn2c(NC(=O)c3ccc(Cl)c(Cl)c3)nc3ccccc32)CC1 [3,4-Dichlorophenyl; H; H; drawing 24, 1-[3-(4-methyl-1-piperazinyl)propyl]-2-(3,4-dichlorobenzamido)benzimidazole] | 61%
O=C(Nc1nc2ccccc2n1CCCN1CCCCC1)c1ccc(Cl)c(Cl)c1 [3,4-Dichlorophenyl; H; H; drawing 26] | 25%
CN1CCN(CCCn2c(NC(=O)c3cc(Cl)cc(Cl)c3)nc3ccccc32)CC1 [3,5-Dichlorophenyl; H; H; drawing 24] | 31%
CN1CCN(CCCn2c(NC(=O)c3cccc(Cl)c3)nc3cc(C(F)(F)F)ccc32)CC1 [3-Chlorophenyl; CF3; H; drawing 24, 1-[3-(4-methyl-1-piperazinyl)propyl]-2-(3-chlorobenzamido)-5-trifluoromethylbenzimidazole] | 73%
CN1CCN(CCCn2c(NC(=O)c3cccc(Cl)c3)nc3cc(Cl)c(Cl)cc32)CC1 [3-Chlorophenyl; Cl; Cl; drawing 24] | 66%
CN1CCN(CCCn2c(NC(=O)c3cccc(Cl)c3)nc3cc(Cl)ccc32)CC1 [3-Chlorophenyl; Cl; H; drawing 24] | 66%
Cc1ccc2nc(NC(=O)c3cccc(Cl)c3)n(CCCN3CCN(C)CC3)c2c1 [3-Chlorophenyl; H; CH3; drawing 24] | 66%
CN(C)CCCn1c(NC(=O)c2cccc(Cl)c2)nc2ccccc21 [3-Chlorophenyl; H; H; Z = N(CH3)2] | 33%
CN1CCN(CCCn2c(NC(=O)c3cccc(Cl)c3)nc3ccccc32)CC1 [3-Chlorophenyl; H; H; drawing 24] | 46%
O=C(Nc1nc2ccccc2n1CCCN1CCCCC1)c1cccc(Cl)c1 [3-Chlorophenyl; H; H; drawing 26] | 34%
COc1ccc2c(c1)nc(NC(=O)c1cccc(Cl)c1)n2CCCN1CCN(C)CC1 [3-Chlorophenyl; OCH3; H; drawing 24] | 59%
CN1CCN(CCCn2c(NC(=O)c3cccc(F)c3)nc3ccccc32)CC1 [3-Fluorophenyl; H; H; drawing 24] | 34%
O=C(Nc1nc2ccccc2n1CCCN1CCCCC1)c1cccc(F)c1 [3-Fluorophenyl; H; H; drawing 26] | 27%
COc1cccc(C(=O)Nc2nc3cc(C(F)(F)F)ccc3n2CCCN2CCN(C)CC2)c1 [3-Methoxyphenyl; CF3; H; drawing 24] | 46%
COc1cccc(C(=O)Nc2nc3cc(Cl)ccc3n2CCCN2CCN(C)CC2)c1 [3-Methoxyphenyl; Cl; H; drawing 24] | 17%
COc1cccc(C(=O)Nc2nc3ccccc3n2CCCN(C)C)c1 [3-Methoxyphenyl; H; H; Z = N(CH3)2] | 21%
COc1cccc(C(=O)Nc2nc3ccccc3n2CCCN2CCOCC2)c1 [3-Methoxyphenyl; H; H; drawing 23] | 29%
COc1cccc(C(=O)Nc2nc3ccccc3n2CCCN2CCN(C)CC2)c1 [3-Methoxyphenyl; H; H; drawing 24] | 26%
COc1cccc(C(=O)Nc2nc3ccccc3n2CCCN2CCCCC2)c1 [3-Methoxyphenyl; H; H; drawing 26] | 52%
COc1cccc(C(=O)Nc2nc3cc(OC)ccc3n2CCCN2CCN(C)CC2)c1 [3-Methoxyphenyl; OCH3; H; drawing 24] | 43%

Same assay, conditions: Rattus norvegicus, 384 h, 33 mg./kg. po, daily day -1 through day 15, read-out: Activity Percent Inhibition

Compound | inhibition in vivo at 33 mg/kg
CN1CCN(CCCn2c(NC(=O)c3cccc(Cl)c3)nc3cc(S(=O)(=O)N(C)C)ccc32)CC1 [3-Chlorophenyl; SO2 N(CH3)2; H; drawing 24, 1-[3-(4-methyl-1-piperazinyl)propyl]-2-(3-chlorobenzamido)-5-(N,N-dimethylsulfonamido)benzimidazole] | 54%

Same assay, conditions: Rattus norvegicus, 384 h, 100 mg./kg. po, daily day -1 through day 15, read-out: Activity Percent Inhibition

Compound | inhibition in vivo at 100 mg/kg
O=C(Nc1nc2ccccc2n1CCCN1CCOCC1)c1cccc(Cl)c1 [3-Chlorophenyl; H; H; drawing 23, 1-[3-(N-morpholino)propyl]-2-(3-chlorobenzamido)benzimidazole] | 32%
